Laboratory results: patent US20210187008A1, “USE OF ACANTHOPANAX TRIFOLIATUS POLYSACCHARIDE ATP1-1 IN PREPARATION OF DRUGS FOR TREATMENT OF DIABETES” (GUANGDONG PHARMACEUTICAL UNIVERSITY, priority 2019, published 2021)

What was measured:
Type in all cases: in vivo
[1] = system: diabetic mice; assay: Diet and water consumption of diabetic mice; conditions: dimethylbiguanide 185 mg/kg, during the administration period, P<0.01
Description: (§1) After 70 mice were adaptively fed for 3 days, they were fasted and kept feeding water for 12 hours, 0.1 mol/L STZ-streptozotocin solution was injected intraperitoneally, the injection volume was 60 mg/kg, and the injection was continued for 5 days. Seven days after the injection, the mice were fasted and kept feeding water for 8 hours, and the tail was cut to collect blood and the fasting blood glucose of the mice was measured. The model was considered as a successful model with a blood glucose concentration greater than 16.5 mmol/L. Diabetic mice successfully modeled (50) were randomly divided into 5 groups, namely: a high glucose model group, a dimethylbiguanid group (185 mg/kg), ATP1-1 high dose group (140 mg/kg), ATP1-1 medium dose group (70 mg/kg), ATP1-1 low dose group (35 mg/kg), 10 mice in each group, and 10 normal mice were randomly selected as a normal control group. All groups were administrated by intragastric administration, and the normal control group and high glucose model group were administrated the same amount of distilled water. after the successful modelling, the body weight, diet and water consumption and blood glucose of the mice before administration and 1, 2, 3, 4, 5, and 6 weeks after administration were measured, and the glucose tolerance was measured at the end of the experiment.

[2] = system: STZ-induced diabetic mice; assay: Body weight of STZ-induced diabetic mice; conditions: for Body Weight: dimethylbiguanide 185 mg/kg intragastric
Description: as §1

[3] = system: diabetic mice; assay: Fasting blood glucose in diabetic mice; conditions: dimethylbiguanide 185 mg/kg
Description: as §1

In the case of `CN(C)C(=N)NC(=N)N` [Dimethylbiguanide, dimethylbiguanide], the “diet and water consumption compared with high glucose model group” value [1] is reported as “significantly reduced”, the “Body Weight” value ([2]; Week 0 (before administration), x±s, n=8) is reported as 19.48 ± .78 g and the “Body Weight” value ([2]; Week 1) is reported as 19.72 ± .77 g. For the same compound, the “Body Weight” value ([2]; Week 2) was 20.40 ± .78 g, the “Body Weight” value ([2]; Week 3) was 20.94 ± .73 g and the “Body Weight” value ([2]; Week 4) was 21.49 ± .84 g. The “Body Weight” value ([2]; Week 5) was 21.70 ± .90 g, the “Body Weight” value ([2]; Week 6) was 21.89 ± .89 g and the “body weight compared with high glucose model group” value ([2]; dimethylbiguanide 185 mg/kg, after 6 weeks of administration, P<0.05) was “significantly higher”. The “fasting blood sugar compared with high glucose group” value ([3]; after three weeks of administration, P<0.05) was “significantly different” and the “blood glucose inhibition rate” value ([3]; at the end of the administration (6 weeks)) was 46.9%.
